The values below come from US20230364091A1, “COMPOSITIONS AND METHODS FOR TREATING CANCER” (The Regents of the University of California, priority 2020, published 2023).

Molecules are shown by their SMILES.

Data set [1] can be described thus: Brain penetration in non-tumor bearing mice. The class given is in vivo. The following applies: mouse, brain and plasma, unbound ratio of drug in brain to plasma. From the text:
Disclosed in table 5 Brain to plasma percentages and unbound ratios of drugs in brain to plasma of indicated drugs in non-tumor bearing mice

Data set [2] concerns PC-9 cells (EGFR exon 19 deletion). In words: Cellular IC50, Cell Titer Glo viability, PC-9. The class given is cell-based. The following applies: Homo sapiens, 72 hours. How it is done:
(§1) PC-9 cells were purchased from Sigma, and HCC827 cells were purchased from ATCC. Each cell line was maintained at ≤passage 10 at 37° C. in a humidified incubator with 5% CO2. Cells were plated in 96-well optical bottom plates (Corning #3903; Corning, NY) at a cell density of 5,000 cells/well, allowed to adhere for minimally 16 hours, and subsequently treated with the test compounds using an 11-point serial dilution (1:3) in duplicate using an HP D300 digital 4 dispenser (Tecan, Morrisville, NC). 72 hours after addition of the test compounds, Cell Titer Glo reagent (Promega, Madison, WI) was added to the plate according to manufacturer's protocol and luminescence measured using a Spectramax M5 (Molecular Devices, San Jose, CA). IC50s were calculated using the 4-parameter variable slope curve fit using the equation below where, Y and X are variables plotted, Top and Bottom are plateaus in the units of the Y axis, Log IC50 is the Log transformation of the IC50 value and HillSlope is the Hill Slope for the curve and describes curve steepness (GraphPad Prism, version 6.07, GraphPad Software, Inc.). Y=Bottom+(Top−Bottom)/(1+10((Log IC50−X)*HillSlope)))
(In ATP-based viability assays light output follows the ATP content of the culture.)

The test system of data set [3] is HCC827 cells (EGFR exon 19 deletion). In words: Cellular IC50, Cell Titer Glo viability, HCC827. The class given is cell-based. Particulars: Homo sapiens, 72 hours. The method, then: as §1

Regarding `CN(C)CC1COc2cc3ncnc(Nc4cccc(Br)c4F)c3cc2O1` (racemic) [JGK066, (±)-N-(3-Bromo-2-fluorophenyl)-7-[(dimethylamino)methyl]-7,8-dihydro[1,4]dioxino[2,3-g]quinazolin-4-amine], the Kp uu in data set [1] was 1.18.
With `Fc1c(Br)cccc1Nc1ncnc2cc3c(cc12)O[C@@H](CN1CCCCC1)CO3` [JCN065S, (S)—N-(3-bromo-2-fluorophenyl)-7-(piperidin-1-ylmethyl)-7,8-dihydro-[1,4]dioxino[2,3-g]quinazolin-4-amine], the IC50 in data set [2] was 53.9 nM; in data set [3] it was 49.5 nM.
As to `CN1CCN(CC2COc3cc4ncnc(Nc5cccc(Br)c5F)c4cc3O2)CC1` (racemic) [JGK068, (±)-N-(3-Bromo-2-fluorophenyl)-7-[(4-methylpiperazin-1-yl)methyl]-7,8-dihydro[1,4]dioxino[2,3-g]quinazolin-4-amine], the Kp uu in data set [1] was found to be 1.18.
Regarding `Fc1c(Br)cccc1Nc1ncnc2cc3c(cc12)O[C@@H](CN1CCCC1)CO3` [JCN067S, (S)—N-(3-bromo-2-fluorophenyl)-7-(pyrrolidin-1-ylmethyl)-7,8-dihydro-[1,4]dioxino[2,3-g]quinazolin-4-amine], the results for the 50% inhibitory concentration (IC50) in data set [2] and in data set [3] were 36.2 nM and 25.7 nM, respectively.
For `Fc1c(Br)cccc1Nc1ncnc2cc3c(cc12)O[C@@H](CN1CCOCC1)CO3` [JCN063S, (S)—N-(3-bromo-2-fluorophenyl)-7-(morpholinomethyl)-7,8-dihydro-[1,4]dioxino[2,3-g]quinazolin-4-amine] the same measures were 21.7 nM and 12.7 nM.
In the case of `Fc1c(Br)cccc1Nc1ncnc2cc3c(cc12)OC(CN1CCOCC1)CO3` (racemic) [JGK063, (±)-N-(3-Bromo-2-fluorophenyl)-7-[(morpholin-4-yl)methyl]-7,8-dihydro[1,4]dioxino[2,3-g]quinazolin-4-amine], the Kp uu in data set [1] stood at 0.341.
Still for that read-out and setting: for `CN1CCN(C[C@H]2COc3cc4ncnc(Nc5cccc(Br)c5F)c4cc3O2)CC1` [JGK068S, (7S)—N-(3-Bromo-2-fluorophenyl)-7-[(4-methylpiperazin-1-yl)methyl]-7,8-dihydro[1,4]dioxino [2,3-g]quinazolin-4-amine] the value was 1.18; for `Fc1c(Br)cccc1Nc1ncnc2cc3c(cc12)O[C@@H](CN1CCNCC1)CO3` [JGK083S, (7S)—N-(3-Bromo-2-fluorophenyl)-7-[(piperazin-1-yl)methyl]-7,8-dihydro[1,4]dioxino [2,3-g]quinazolin-4-amine], 0.798.

A word on the IC50: it is the concentration that gives 50% inhibition. Read a high IC50 as weaker potency in that assay.
